Patent publication US9133204B2, “5-membered heterocyclic amides and related compounds” (H. Lundbeck A/S, priority 2007, dated 2015)

Biological target: T1, P2X7 receptor (Homo sapiens, UniProt Q99572)
T1 construct: host or cells: SH-SY5Y
T1 sequence (Q99572 1-595): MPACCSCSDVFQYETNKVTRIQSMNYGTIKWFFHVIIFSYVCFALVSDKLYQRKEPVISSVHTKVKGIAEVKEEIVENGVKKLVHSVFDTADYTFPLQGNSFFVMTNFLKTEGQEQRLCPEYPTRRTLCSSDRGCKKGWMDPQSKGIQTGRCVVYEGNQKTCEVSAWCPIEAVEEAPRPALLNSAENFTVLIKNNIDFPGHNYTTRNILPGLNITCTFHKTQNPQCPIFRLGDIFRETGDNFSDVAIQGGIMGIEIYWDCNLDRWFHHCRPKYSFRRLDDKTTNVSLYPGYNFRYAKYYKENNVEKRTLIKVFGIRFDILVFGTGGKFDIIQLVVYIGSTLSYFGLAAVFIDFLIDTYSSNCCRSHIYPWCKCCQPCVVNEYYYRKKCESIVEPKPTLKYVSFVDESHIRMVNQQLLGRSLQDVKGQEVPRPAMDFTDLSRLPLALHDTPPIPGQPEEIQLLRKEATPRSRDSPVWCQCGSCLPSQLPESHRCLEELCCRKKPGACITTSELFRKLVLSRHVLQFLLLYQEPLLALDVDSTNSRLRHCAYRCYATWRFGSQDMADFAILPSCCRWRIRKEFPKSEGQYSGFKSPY
Experiment: High throughput P2X7 calcium mobilization assay (Example 4A)
Type: cell-based
Conditions: SH-SY5Y cells, 50% decrease in fluorescence response of cells exposed to 80 μM BzATP
Experimental: A. High Throughput Assay of P2X7 Receptors
SH-SY5Y cells, ATCC Number CRL-2266, (American Type Culture Collection, Manassas, Va.) are cultured under DMEM/High medium supplemented with 10% FBS, and 10 mM HEPES (Invitrogen Corp., Carlsbad, Calif.) in 5% CO2 and at 37° C. One day prior to the experiment, cells are plated at a density of 100,000 cells/well in a 96 well black/clear TC plate (Corning® Costar®, Sigma-Aldrich Co., St. Louis, Mo.). At the beginning of the experiment, the culture medium is removed and cells are incubated with 50 μL of 2.3 μM Fluo-4 AM dye (Invitrogen Corp.) in the assay solution (5 mM KCl, 9.6 mM NaH2PO4.H2O, 25 mM HEPES, 280 mM sucrose, 5 mM glucose, and 0.5 mM CaCl2; pH is adjusted to 7.4 with NaOH) for an hour at 37° C. After one hour dye incubation, wells are rinsed once with 50 μL assay solution, and are then incubated for an hour at room temperature with 100 μL assay solution containing the test compound. The final concentration of test compound generally ranges from 1 to 2500 nM; for positive control cells, no test compound is added. After the one hour incubation, plates are transferred to a FLIPR^TETRA instrument (Molecular Devices, Sunnyvale, Calif.) for calcium mobilization analysis.
For determination of antagonist activity, 50 μL, of P2X7 agonist (2′(3)-O-(4-benzoyl-benzoyl)adenosine 5′-triphosephate (BzATP; Sigma-Aldrich) in the assay solution is transferred using the FLIPR into the plate, such that the final agonist concentration is 80 μM (about EC50). In negative control cells, 50 μL of assay solution without agonist is added at this stage. The peak fluorescence signal over a 2 minute period is then measured.
First, the average maximum relative fluorescent unit (RFU) response from the negative control wells (no agonist) is subtracted from the maximum response detected for each of the other experimental wells. Second, average maximum RFU response is calculated for the positive control wells (agonist wells).

[1] = flag after the MS data in Examples 1-2

| SMILES | IC50 (Table I) [nM] | IC50 [1] [nM] |
| --- | --- | --- |
| CCc1cnc(-n2cc(C(=O)NCC34CC5CC(CC(C5)C3)C4)c(C)n2)nc1 [Compound 102, N-(adamantan-1-ylmethyl)-1-(5-ethylpyrimidin-2-yl)-3-methyl-1H-pyrazole-4-carboxamide] | ≤ 2000 |  |
| Cc1cnc(-n2cc(C(=O)NCC(CC(C)C)c3ccc(Cl)cc3)c(C)n2)nc1N (centres unmarked) [Compound 109, 1-(4-amino-5-methylpyrimidin-2-yl)-N-[2-(4-chlorophenyl)-4-methylpentyl]-3-methyl-1H-pyrazole-4-carboxamide] | ≤ 2000 |  |
| CN1CCN(C2(CNC(=O)c3sc(-c4ncccn4)nc3C(F)(F)F)CCCCCC2)CC1 [Compound 24, N-{[1-(4-methylpiperazin-1-yl)cycloheptyl]methyl}-2-pyrimidin-2-yl-4-(trifluoromethyl)-1,3-thiazole-5-carboxamide] |  | ≤ 2000 |
| CCn1nc(C)c(Br)c1C(=O)NCC(CC(C)C)c1ccccc1 (centres unmarked) [Compound 49, 4-bromo-1-ethyl-3-methyl-N-(4-methyl-2-phenylpentyl)-1H-pyrazole-5-carboxamide] | ≤ 2000 |  |
| Cc1nc(OC2CCNCC2)sc1C(=O)NCC12CC3CC(CC(C3)C1)C2 [Compound 70, N-(adamantan-1-ylmethyl)-4-methyl-2-(piperidin-4-yloxy)-1,3-thiazole-5-carboxamide] | ≤ 2000 |  |
| Cc1cnc(-n2cc(C(=O)NCC34CC5CC(CC(C5)C3)C4)c(C)n2)nc1-c1cccnc1 [Compound 95, N-(adamantan-1-ylmethyl)-3-methyl-1-(5-methyl-4-pyridin-3-ylpyrimidin-2-yl)-1H-pyrazole-4-carboxamide] | ≤ 2000 |  |
| Cc1cnc(-n2cc(C(=O)NCC34CC5CC(CC(C5)C3)C4)c(C)n2)nc1-c1cncnc1 [Compound 120, N-(adamantan-1-ylmethyl)-3-methyl-1-(5-methyl-4,5′ bipyrimidin-2-yl)-1H-pyrazole-4-carboxamide] | ≤ 2000 |  |
| O=C(NCC1(c2cccnc2)CCCCC1)c1cn(-c2ncccn2)nc1Cl [Compound 11, 3-Chloro-N-[(1-pyridin-3-ylcyclohexyl)methyl]-1-pyrimidin-2-yl-1H-pyrazole-4-carboxamide] |  | ≤ 2000 |
| Cn1nc(-c2ccccc2)cc1C(=O)NCC1(c2ccc(Cl)cc2)CCCCC1 [Compound 21, 1-Methyl-3-phenyl-N-[1-(4-chlorophenyl)cyclohexyl]methyl-1H-pyrazole-5-carboxamide] |  | ≤ 2000 |
| Cc1nn(-c2nccc(C(F)(F)F)n2)cc1C(=O)NCC12CC3CC(CC(C3)C1)C2 [Compound 111, N-(adamantan-1-ylmethyl)-3-methyl-1-[4-(trifluoromethyl)pyrimidin-2-yl]-1H-pyrazole-4-carboxamide] | ≤ 2000 |  |
| Cn1nc(C(F)(F)F)cc1-c1ccc(C(=O)NCCC23CC4CC(CC(C4)C2)C3)s1 [Compound 85, N-[2-(1-adamantyl)ethyl]-5-[1-methyl-3-(trifluoromethyl)-1H-pyrazol-5-yl]thiophene-2-carboxamide] | ≤ 2000 |  |

Other lines, results leading:

| IC50 (Table I) [nM] | IC50 [1] [nM] | SMILES |
| --- | --- | --- |
| ≤ 2000 |  | CCCC(CNC(=O)c1cn(-c2ncc(F)c(N)n2)nc1C(F)(F)F)c1ccc(Cl)cc1 (centres unmarked) [Compound 150, 1-(4-amino-5-fluoropyrimidin-2-yl)-N-[2-(4-chlorophenyl)pentyl]-3-(trifluoromethyl)-1H-pyrazole-4-carboxamide] |
| ≤ 2000 |  | Cc1cnc(-n2cc(C(=O)NCC3(c4ccc(C(F)(F)F)cc4)CCCCC3)c(C(C)(C)C)n2)nc1N [Compound 177, 1-(4-amino-5-methylpyrimidin-2-yl)-3-tert-butyl-N-({1-[4-(trifluoromethyl)phenyl]cyclohexyl]methyl)-1H-pyrazole-4-carboxamide] |
| ≤ 2000 |  | O=C(NCC1(c2cccnc2)CCCCC1)c1sc(-c2nccs2)nc1C(F)(F)F [Compound 317, N-[(1-pyridin-3-ylcyclohexyl)methyl]-4-(trifluoromethyl)-2,2′-bi-1,3-thiazole-5-carboxamide] |
| ≤ 2000 |  | COc1ccc(C2(CNC(=O)c3sc(-c4ncccn4)nc3C(F)(F)F)CCCC2)cc1 [Compound 285, N-{[1-(4-methoxyphenyl)cyclopentyl]methyl}-2-pyrimidin-2-yl-4-(trifluoromethyl)-1,3-thiazole-5-carboxamide] |
| ≤ 2000 |  | O=C(NCC1(c2cccnc2)CCCCC1)c1cn(-c2ncc(Cl)cn2)nc1C(F)(F)F [Compound 192, 1-(5-chloropyrimidin-2-yl)-N-[(1-pyridin-3-ylcyclohexyl)methyl]-3-(trifluoromethyl)-1H-pyrazole-4-carboxamide] |
| ≤ 2000 |  | CC(C)CC(CNC(=O)c1sc(-c2ncccn2)nc1C(F)(F)F)c1ccc(C(F)(F)F)nc1 (centres unmarked) [Compound 304, N-{4-methyl-2-[6-(trifluoromethyl)pyridin-3-yl]pentyl}-2-pyrimidin-2-yl-4-(trifluoromethyl)-1,3-thiazole-5-carboxamide] |
| ≤ 2000 |  | O=C(NCCc1ccccc1Br)c1cn(-c2ncccn2)nc1C(F)(F)F [Compound 218, N-[2-(2-bromophenyl)ethyl]-1-pyrimidin-2-yl-3-(trifluoromethyl)-1H-pyrazole-4-carboxamide] |
| ≤ 2000 |  | O=C(NCC1(c2cccnc2)CCCCC1)c1sc(-n2ccccc2=O)nc1C(F)(F)F [Compound 293, 2-(2-oxopyridin-1(2H)-yl)-N-[(1-pyridin-3-ylcyclohexyl)methyl]-4-(trifluoromethyl)-1,3-thiazole-5-carboxamide] |
| ≤ 2000 |  | O=C(NCC12CC3CC(CC(C3)C1)C2)c1cn(-c2nccs2)nc1C(F)(F)F [Compound 135, N-(adamantan-1-ylmethyl)-1-(1,3-thiazol-2-yl)-3-(trifluoromethyl)-1H-pyrazole-4-carboxamide] |
| ≤ 2000 |  | Cc1nn(-c2ncccn2)cc1C(=O)NCC1(c2ccc(C(F)(F)F)cc2)CCCCC1 [Compound 181, 3-methyl-1-pyrimidin-2-yl-N-({1-[4-(trifluoromethyl)phenyl]cyclohexyl]methyl)-1H-pyrazole-4-carboxamide] |
| ≤ 2000 |  | O=C(NCC1(N2CCOCC2)CCCCC1)c1cn(-c2ncccn2)nc1C(F)(F)F [Compound 198, N-[(1-morpholin-4-ylcyclohexyl)methyl]-1-pyrimidin-2-yl-3-(trifluoromethyl)-1H-pyrazole-4-carboxamide] |
| ≤ 2000 |  | CCc1nc(-c2ncccn2)sc1C(=O)NCC(CC(C)C)c1ccc(Cl)cc1 (centres unmarked) [Compound 249, N-[2-(4-chlorophenyl)-4-methylpentyl]-4-ethyl-2-pyrimidin-2-yl-1,3-thiazole-5-carboxamide] |
| ≤ 2000 |  | O=C(NCC1(c2cccnc2)CCCCC1)c1sc(-n2ccnn2)nc1C(F)(F)F [Compound 308, N-[(1-pyridin-3-ylcyclohexyl)methyl]-2-(1H-1,2,3-triazol-1-yl)-4-(trifluoromethyl)-1,3-thiazole-5-carboxamide] |
| ≤ 2000 |  | Nc1ccnc(-n2cc(C(=O)NCC34CC5CC(CC(C5)C3)C4)c(C(F)(F)F)n2)n1 [Compound 130, N-(adamantan-1-ylmethyl)-1-(4-aminopyrimidin-2-yl)-3-(trifluoromethyl)-1H-pyrazole-4-carboxamide] |
| ≤ 2000 |  | CC(C)n1cc(C2(CNC(=O)c3sc(-c4ncccn4)nc3C(F)(F)F)CCCCC2)cn1 [Compound 297, N-{[1-(1-isopropyl-1H-pyrazol-4-yl)cyclohexyl]methyl}-2-pyrimidin-2-yl-4-(trifluoromethyl)-1,3-thiazole-5-carboxamide] |
